In patent publication EP4722231A1, “BIOSYNTHESIS METHOD FOR BROAD-SPECTRUM ANTIVIRAL POLYPEPTIDE” (Shanxi Jinbo Bio-Pharmaceutical Co., Ltd., priority 2023, dated 2025) one finds IC50 data, which are given here for one molecule.

One assay relates to BA.2 pseudovirus. The note with it: read-out: Inhibitory activity, IC50 (nM) BA.2, Caco2 target cells.
A further assay deals with BA.2.75 pseudovirus. The note with it: read-out: Inhibitory activity, IC50 (nM) BA.2.75, Caco2 target cells.
The test system of another assay is BA.2.86 pseudovirus. The note with it: read-out: Inhibitory activity, IC50 (nM) BA.2.86, Caco2 target cells.
The next assay has as its system XBB.1.5 pseudovirus. The note with it: read-out: Inhibitory activity, IC50 (nM) XBB.1.5, Caco2 target cells.
In another assay the test system is EG.5 pseudovirus. The note with it: read-out: Inhibitory activity, IC50 (nM) EG.5, Caco2 target cells.

The IC50 is the concentration needed to halve the response being measured. For the molecule `CC[C@H](C)[C@H](NC(=O)[C@H](C)NC(=O)[C@H](CCC(=O)O)NC(=O)[C@H](CCC(=O)O)NC(=O)[C@H](CC(C)C)NC(=O)[C@H](CCCCN)NC(=O)[C@H](CCCCN)NC(=O)[C@H](CCSC)NC(=O)[C@H](CCC(=O)O)NC(=O)[C@H](Cc1ccc(O)cc1)NC(=O)[C@H](CCC(=O)O)NC(=O)[C@H](CC(C)C)NC(=O)[C@H](CC(=O)O)NC(=O)[C@H](CC(C)C)NC(=O)[C@H](Cc1ccccc1)NC(=O)[C@@H](NC(=O)[C@@H](NC(=O)[C@H](CC(N)=O)NC(=O)[C@@H](NC(=O)[C@H](CCC(N)=O)NC(=O)[C@H](CC(=O)O)NC(=O)[C@H](CC(C)C)NC(=O)[C@H](CO)NC(C)=O)[C@@H](C)CC)C(C)C)[C@@H](C)O)C(=O)N[C@@H](CCCCN)C(=O)N[C@@H](CCCCN)C(=O)N[C@@H](CC(C)C)C(=O)N[C@@H](CCC(=O)O)C(=O)N[C@@H](CCC(=O)O)C(=O)N[C@@H](CO)C(=O)N[C@@H](Cc1ccc(O)cc1)C(=O)N[C@H](C(=O)N[C@@H](CC(=O)O)C(=O)N[C@@H](CC(C)C)C(=O)N[C@@H](CCCCN)C(=O)N[C@@H](CCC(=O)O)C(=O)N[C@@H](CC(C)C)C(N)=O)[C@@H](C)CC` [EK1], the concentration for half-maximal inhibition (IC50) with BA.2 pseudovirus was 228 nM; in the assay with BA.2.75 pseudovirus, 438 nM; in the assay on BA.2.86 pseudovirus, 392 nM; in the assay on XBB.1.5 pseudovirus it was 291 nM; in the assay on EG.5 pseudovirus it was 401 nM.
